The target in this assay is T1, human full-length glucocorticoid receptor (Homo sapiens, UniProt P04150).
T1 construct: recombinantly expressed human full-length glucocorticoid receptor; purchased PanVera Co., Madison, Wis; P2816
T1 sequence (P04150 1-777): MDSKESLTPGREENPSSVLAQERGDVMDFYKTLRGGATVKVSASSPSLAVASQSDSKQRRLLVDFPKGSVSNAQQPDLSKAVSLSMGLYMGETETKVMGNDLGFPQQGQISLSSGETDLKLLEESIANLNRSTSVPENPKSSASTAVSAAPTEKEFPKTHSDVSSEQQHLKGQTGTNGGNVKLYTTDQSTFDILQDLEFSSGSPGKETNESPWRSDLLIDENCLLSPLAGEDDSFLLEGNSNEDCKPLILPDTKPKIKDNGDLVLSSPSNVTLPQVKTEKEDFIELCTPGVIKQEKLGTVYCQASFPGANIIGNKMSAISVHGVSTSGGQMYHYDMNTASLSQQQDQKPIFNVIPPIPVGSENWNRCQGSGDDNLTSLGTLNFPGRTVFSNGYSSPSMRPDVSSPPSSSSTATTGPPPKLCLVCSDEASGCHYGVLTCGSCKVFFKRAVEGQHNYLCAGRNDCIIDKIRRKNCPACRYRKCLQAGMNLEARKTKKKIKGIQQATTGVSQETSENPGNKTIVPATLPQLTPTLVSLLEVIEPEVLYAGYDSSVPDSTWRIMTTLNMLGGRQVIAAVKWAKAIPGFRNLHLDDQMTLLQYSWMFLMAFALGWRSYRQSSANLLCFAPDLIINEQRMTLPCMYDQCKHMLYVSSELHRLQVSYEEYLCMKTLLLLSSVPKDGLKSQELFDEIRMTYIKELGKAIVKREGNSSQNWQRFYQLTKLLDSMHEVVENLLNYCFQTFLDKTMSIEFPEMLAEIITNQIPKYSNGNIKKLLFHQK
The experiment in a line: Glucocorticoid Receptor Binding Assay (II), fluorescence polarization competitor kit (Fluormone GS1). The conditions noted are these: GR Binding Assay (II). How it is done:
Glucocorticoid Receptor Binding Assay (II)^b
In order to measure the binding of compounds on the glucocorticoid receptor a commercially available kit was used (Glucocorticoid receptor competitor assay kit, PanVera Co., Madison, Wis., P2816). Briefly, a cell lysate containing recombinantly expressed human full-length glucocorticoid receptor was mixed with a fluorescently labeled glucocorticoid (1 nM Fluormone GS1) in the presence or absence of test compound. After one hour at room temperature, the fluorescence polarization (FP) of the samples were measured.

For the compound `CC(C)(C(=O)Nc1nccs1)[C@H](c1ccccc1)c1ccc(OC(=O)c2ccco2)cc1` [Example 363, 4-((1R)-2,2-dimethyl-3-oxo-1-phenyl-3-(1,3-thiazol-2-ylamino)propyl)phenyl 2-furancarboxylate], the affinity corresponds to a Ki of 47 nM. To `CC(C)(C(=O)Nc1nccs1)C(c1ccccc1)c1ccc(Br)cc1` (stereo not shown) [Example 317, 3-(4-bromophenyl)-2,2-dimethyl-3-phenyl-N-1,3-thiazol-2-ylpropanamide] belongs 23.2 nM; to `COc1ccc([C@H](c2ccccc2)C(C)(C)C(=O)Nc2nc(C)cs2)cc1` [Example 265, 2,2-dimethyl-3-(4-(methyloxy)phenyl)-N-(4-methyl-1,3-thiazol-2-yl)-3-phenylpropanamide], 193 nM. In turn, `CC(C)(C(=O)Nc1nccs1)C(c1ccccc1)c1ccc(N2CCC(O)CC2)cc1` (stereo not shown) [Example 242, 3-(4-(4-hydroxy-1-piperidinyl)phenyl)-2,2-dimethyl-3-phenyl-N-1,3-thiazol-2-ylpropanamide] came in with a Ki of 9.6 nM. Regarding `CC(C)(C(=O)Nc1nccs1)C(c1ccccc1)c1ccc(F)cc1` (stereo not shown) [Example 308, 3-(4-fluorophenyl)-2,2-dimethyl-3-phenyl-N-1,3-thiazol-2-ylpropanamide], the Ki stood at 35 nM.

As to `CC(C)(C(=O)Nc1nccs1)C(c1ccccc1)c1ccc(F)cc1` (stereo not shown) [Example 307, 3-(4-fluorophenyl)-2,2-dimethyl-3-phenyl-N-1,3-thiazol-2-ylpropanamide], the affinity corresponds to a Ki of 15.5 nM.

`CC(O)c1ccc(C(c2ccccc2)C(C)(C)C(=O)Nc2nccs2)cc1` (stereo not shown) [Example 371, 3-(4-(1-Hydroxyethyl)phenyl)-2,2-dimethyl-3-phenyl-N-1,3-thiazol-2-ylpropanamide] came in with a Ki of 38.1 nM. `CC(C)(C)OC(=O)Nc1ccc(C(c2ccccc2)C(C)(C)C(=O)Nc2nncs2)cc1` (stereo not shown) [Example 248, 1,1-dimethylethyl (4-(2,2-dimethyl-3-oxo-1-phenyl-3-(1,3,4-thiadiazol-2-ylamino)propyl)phenyl)carbamate] gave a Ki of 306 nM. This Ki lies about 8-fold higher than the previous one. `CC(C)(C(=O)Nc1nncs1)C(c1ccc(Cl)cc1)c1ccc(N2CCOCC2)cc1` (stereo not shown) [Example 233, 3-(4-chlorophenyl)-2,2-dimethyl-3-(4-(4-morpholinyl)phenyl)-N-1,3,4-thiadiazol-2-ylpropanamide]: the Ki was determined as 13.2 nM. For `CC(C)(C(=O)Nc1nccs1)C(c1ccccc1)c1ccc(-c2ccncc2)cc1` (stereo not shown) [Example 375, 2,2-dimethyl-3-phenyl-3-(4-(4-pyridinyl)phenyl)-N-1,3-thiazol-2-ylpropanamide], the affinity corresponds to a Ki of 11 nM. This Ki and that of the compound before are within 1.5-fold of each other.

Take `CC(C)(C(=O)Nc1nncs1)C(c1ccccc1)c1ccc(N)cc1` (stereo not shown) [Example 252, 3-(4-aminophenyl)-2,2-dimethyl-3-phenyl-N-1,3,4-thiadiazol-2-ylpropanamide]: the Ki is 60.5 nM.

As to `CC(C)(C(=O)Nc1nccs1)C(C)(c1ccccc1)c1ccc(N2CCOCC2)cc1` (stereo not shown) [Example 249, 2,2-dimethyl-3-(4-(4-morpholinyl)phenyl)-3-phenyl-N-1,3-thiazol-2-ylbutanamide], affinity was put at a Ki of 181 nM. With `CC(C)(C(=O)Nc1nccs1)C(c1ccccc1)c1ccc(F)cc1` (stereo not shown) [Example 309, 3-(4-fluorophenyl)-2,2-dimethyl-3-phenyl-N-1,3-thiazol-2-ylpropanamide], affinity was put at a Ki of 76.4 nM. In turn, `COc1ccc([C@@H](c2ccccc2)C(C)(C)C(=O)Nc2nccs2)cc1C#N` [Example 296, (3R)-3-(3-Cyano-4-(methyloxy)phenyl)-2,2-dimethyl-3-phenyl-N-1,3-thiazol-2-ylpropanamide] registered an inhibitory constant (Ki) of 45.7 nM.

In turn, `CC(C)(C(=O)Nc1nccs1)C(c1ccccc1)c1ccc(Br)c(F)c1` (stereo not shown) [Example 314, 3-(4-bromo-3-fluorophenyl)-2,2-dimethyl-3-phenyl-N-1,3-thiazol-2-ylpropanamide] registered an inhibition constant (Ki) of 13.2 nM. Compared with the last compound, the Ki is about 3.5-fold lower. As to `CC(O)c1cccc(C(c2ccccc2)C(C)(C)C(=O)Nc2nccs2)c1` (stereo not shown) [Example 373, 3-(3-(1-hydroxyethyl)phenyl)-2,2-dimethyl-3-phenyl-N-1,3-thiazol-2-ylpropanamide], the Ki is 320 nM.

`CC(C)(C(=O)Nc1nccs1)[C@@H](c1ccccc1)c1ccc(N2CCOCC2)cc1` (stereo in doubt) [Example 257, 2,2-dimethyl-3-(4-(4-morpholinyl)phenyl)-3-phenyl-N-1,3-thiazol-2-ylpropanamide] displayed an inhibition constant Ki of 71.4 nM. The compound `CCOC(=O)c1csc(NC(=O)C(C)(C)[C@@H](c2ccccc2)c2ccc(OC)cc2)n1` [Example 263, ethyl 2-((2,2-dimethyl-3-(4-(methyloxy)phenyl)-3-phenylpropanoyl)amino)-1,3-thiazole-4-carboxylate] yielded a Ki of 130 nM. To `Cc1cnc(NC(=O)C(C)(C)[C@@H](c2ccccc2)c2ccc(O)cc2)s1` [Example 331, (3S)-3-(4-hydroxyphenyl)-2,2-dimethyl-N-(5-methyl-1,3-thiazol-2-yl)-3-phenylpropanamide] belongs 18.8 nM; to `COc1ccc([C@H](c2ccccc2)C(C)(C)C(=O)Nc2ccncn2)cc1` [Example 278, (3S)-2,2-dimethyl-3-(4-(methyloxy)phenyl)-3-phenyl-N-4-pyrimidinylpropanamide], 1850 nM; to `COc1ccc(C(c2ccc(OC)cc2)C(C)(C)C(=O)Nc2nccs2)cc1` [Example 69, 2,2-dimethyl-3,3-bis(4-(methyloxy)phenyl)-N-1,3-thiazol-2-ylpropanamide], 67.2 nM. Regarding `COc1ccc(C(c2ccccc2)C(C)(C)C(=O)Nc2nccs2)cc1F` (stereo not shown) [Example 283, 3-(3-fluoro-4-(methyloxy)phenyl)-2,2-dimethyl-3-phenyl-N-1,3-thiazol-2-ylpropanamide], the Ki was determined as 9.2 nM.

The compound `COc1ccc([C@@H](c2ccccc2)C(C)(C)C(=O)NC2CCC2)cc1` [Example 272, (3R)-N-cyclobutyl-2,2-dimethyl-3-(4-(methyloxy)phenyl)-3-phenylpropanamide] showed a Ki of 1160 nM. As to `CC(C)(C(=O)N1CCOCC1)[C@@H](c1ccccc1)c1ccc(O)cc1` [Example 337, 4-((1S)-2,2-dimethyl-3-(4-morpholinyl)-3-oxo-1-phenylpropyl)phenol], the affinity corresponds to a Ki of 2090 nM. `Cc1ccc(C(c2ccc(N3CCOCC3)cc2)C(C)(C)C(=O)Nc2nncs2)cc1` (stereo not shown) [Example 226, 2,2-dimethyl-3-(4-methylphenyl)-3-(4-(4-morpholinyl)phenyl)-N-1,3,4-thiadiazol-2-ylpropanamide] had a Ki of 9.4 nM. This Ki is about 220-fold lower than that of the compound before. Regarding `COc1ccc(C(c2ccccc2)C(C)(C)C(=O)Nc2nccs2)c(F)c1` (stereo not shown) [Example 279, 3-(2-fluoro-4-(methyloxy)phenyl)-2,2-dimethyl-3-phenyl-N-1,3-thiazol-2-ylpropanamide], the inhibition constant (Ki) was 74.7 nM. Take `CC(C)(C(=O)Nc1nccs1)C(c1ccccc1)c1ccc(O)c(F)c1` (stereo not shown) [Example 346, 3-(3-fluoro-4-hydroxyphenyl)-2,2-dimethyl-3-phenyl-N-1,3-thiazol-2-ylpropanamide]: the affinity, expressed as Ki, was 16 nM. In the case of `CC(=O)c1ccc(C(c2ccccc2)C(C)(C)C(=O)Nc2nccs2)cc1` (stereo not shown) [Example 368, 3-(4-Acetylphenyl)-2,2-dimethyl-3-phenyl-N-1,3-thiazol-2-ylpropanamide], affinity was put at a Ki of 19.2 nM.

The compound `COc1ccc([C@@H](c2ccccc2)C(C)(C)C(=O)Nc2nc(C)cs2)cc1` [Example 266, 2,2-dimethyl-3-(4-(methyloxy)phenyl)-N-(4-methyl-1,3-thiazol-2-yl)-3-phenylpropanamide] had a Ki of 315 nM. `CC(C)(C(=O)Nc1nncs1)C(c1ccccc1)c1ccc(N2CCC(O)CC2)cc1` (stereo not shown) [Example 241, 3-(4-(4-hydroxy-1-piperidinyl)phenyl)-2,2-dimethyl-3-phenyl-N-1,3,4-thiadiazol-2-ylpropanamide]: the Ki was found to be 31.3 nM.

Consider `CC(C)(C(=O)Nc1nncs1)C(c1ccccc1)c1cccc(N2CCOCC2)c1` (stereo not shown) [Example 245, 2,2-dimethyl-3-(3-(4-morpholinyl)phenyl)-3-phenyl-N-1,3,4-thiadiazol-2-ylpropanamide], for which the affinity, expressed as Ki, was 2310 nM. Against the preceding compound, the Ki is about 74-fold higher. Turning to `CC(=O)Nc1ccc(C(c2ccccc2)C(C)(C)C(=O)Nc2nccs2)cc1` (stereo not shown) [Example 247, 3-(4-(acetylamino)phenyl)-2,2-dimethyl-3-phenyl-N-1,3-thiazol-2-ylpropanamide], the Ki was 413 nM. To `CC(C)(C(=O)Nc1nncs1)C(c1ccccc1)c1ccc(N2CCOCC2)c(F)c1` (stereo not shown) [Example 244, 3-(3-fluoro-4-(4-morpholinyl)phenyl)-2,2-dimethyl-3-phenyl-N-1,3,4-thiadiazol-2-ylpropanamide] belongs 17.8 nM. Turning to `CC(C)(C(=O)NC1CCC1)[C@H](c1ccccc1)c1ccc(O)cc1` [Example 334, (3R)-N-cyclobutyl-3-(4-hydroxyphenyl)-2,2-dimethyl-3-phenylpropanamide], the affinity, expressed as Ki, was 395 nM.

For the origin of these results see patent publication US7968577B2 (Bristol-Myers Squibb Company, priority 2006, dated 2011).
